The term IC50 denotes the concentration that gives 50% inhibition.

The values that follow come from patent publication US10358455B2, “Arene ruthenium complex, preparation method and utilization thereof” (Guangdong Pharmaceutical University, priority 2017, dated 2019).

Type in all cases: cell-based
The test system of assay [1] is MDA-MB-231 breast cancer cells. As to the kind of experiment: MTT assay on MDA-MB-231 breast cancer cells. The settings on record: 72 h, 5-80 μM, read-out: The inhibitory effect IC50 on MDA-MB-231 breast cancer cells. The protocol:
The Anti-Invasion Activities of Arene Ruthenium (II) Complexes Against MDA-MB-231 Breast Cancer Cells.
The anti-invasion activities of arene ruthenium (II) complexes against MDA-MB-231 breast cancer cells was evaluated by MTT assay. Discarding the medium of the MDA-MB-231 breast cancer cells in exponential growth phase, washing the cells twice with phosphate-buffered saline (PBS), dissociating into single cells by digesting with 1 mL trypsin, counting the cells. Adding fresh medium to dilute cell population to 1.5×10^4 cells/mL, inoculating into 96-well tissue culture plates (3×10^3 cells per well) with 200 μL/well in 6 wells of each group, repeating twice, and then culturing at 37° C. in 5% CO2 saturated humidity incubator for 16 h. After adherent cells are apparent, removing the supernatant carefully and adding DMEM media. Meanwhile, the cells were incubated with different concentrations of arene ruthenium (II) complexes with a final concentration of 5, 10, 20, 40 and 80 μM respectively and maintain the total volume at 200 μL/well. Thereafter, the cells were cultured for 72 h. At the end of incubation, 20 μL/well of MTT solution (5 mg/mL) was added and incubated for 4 h. Removing the supernatant carefully and replaced with 150 μL/well of DMSO and oscillated for 10 mins to ensure complete dissolution of the formazan crystallization. The absorbance values were measured at 490 nm using a microplate reader. Cell viability was calculated according to the following formula: Cell viability (%)=A490 nm (cells in experimental group)/A490 nm (cells in control group)×100%
According to the values of cell viability, calculating the inhibitory activities (IC50) of the target complex against MDA-MB-231 cells.
(Tetrazolium assays rely on reduction of a dye to a coloured formazan, in cell work by metabolically active cells.)

The next assay deals with MDA-MB-231 cells. As to the kind of experiment: Cell cycle analysis by flow cytometry (PI staining). The settings on record: FIG. 75. Here is the method:
After incubating with arene ruthenium (II) complex RAP07, the cell cycle arrest of MDA-MB-231 cells was analyzed with an Epics XL-MCL flow cytometer. The general method is: Trypsinizing the cells with trypsin, washing the cells with phosphate-buffered saline (PBS), and fixing the cells with 70% ethanol overnight at −20° C. Washing the fixed cells with phosphate-buffered saline (PBS) and staining with propidium iodide (PI) for 4 hours in the dark. Finally, the cell cycle arrest was analyzed using an Epics XL-MCL flow cytometer, cell cycle distribution was analyzed using MultiCycle software (Phoenix Flow Systems, San Diego, Calif.). The number of apoptotic cells with sub-diploid DNA were determined by measuring the […] in the cell cycle, every 10000 cells of each sample were recorded.
For orientation: Flow cytometry measures light scatter and fluorescence of single cells or particles in a stream.

Assay [2] deals with human esophageal carcinoma EC-1 cells. As to the kind of experiment: MTT assay on human esophageal carcinoma EC-1 cells. The settings on record: 72 h, 5-80 μM, read-out: The inhibitory effect IC50 on human esophageal carcinoma EC-1 cells. The protocol:
The Antiproliferative Activities of Arene Ruthenium (II) Complexes Against Human Esophageal Carcinoma EC-1 Cells.
(§1) The antiproliferative effects of arene ruthenium (II) complex against human esophageal carcinoma EC-1 cells were evaluated by MTT assay. Discarding the medium of human esophageal carcinoma EC-1 cells in exponential growth phase, washing the cells twice with phosphate-buffered saline (PBS), dissociating into single cells by digesting with 1 mL trypsin, counting the cells. Adding fresh medium to dilute cell population to 1.5×10^4 cells/mL, inoculating into 96-well tissue culture plates (3×10^3 cells per well) with 200 µL/well in 6 wells of each group, repeating twice, and then culturing at 37° C. in 5% CO2 saturated humidity incubator for 16 h. After adherent cells are apparent, removing the supernatant carefully and adding DMEM media. Meanwhile, the cells were incubated with different concentrations of arene ruthenium (II) complexes with a final concentration of 5, 10, 20, 40 and 80 μM respectively and maintain the total volume at 200 μL/well. Thereafter, the cells were cultured for 72 h. At the end of incubation, 20 μL/well of MTT solution (5 mg/mL) was added and incubated at 37° C. for 4 h. Removing the supernatant carefully and replaced with 150 μL/well of DMSO and oscillated for 10 min to ensure complete dissolution of the formazan crystallization. The absorbance values were measured at 490 nm using a microplate reader. Cell viability was calculated according to the following formula: Cell viability (%)=A490 nm (cells in experimental group)/A490 nm (cells in control group)×100%
According to the values of cell viability, calculating the inhibitory activities (IC50) of the target complex against human esophageal carcinoma EC-1 cells.

The subject of assay [3] is rat glioma C6 cancer cells. As to the kind of experiment: MTT assay on rat glioma C6 cells. The settings on record: 72 h, 5-80 μM, read-out: The inhibitory effect IC50 on rat glioma C6 cancer cells. Here is the method: The Antiproliferative Activities of Arene Ruthenium (II) Complexes Against Rat Glioma C6 Cancer Cells.
as §1, with “against rat glioma C6” for “against human esophageal carcinoma EC-1”, “of the rat glioma C6” for “of human esophageal carcinoma EC-1”, “200 μL/well” for “200 µL/well”, “μM respectively,” for “μM respectively”, “incubated” for “incubated at 37° C.”
According to the values of cell viability, calculating the inhibitory activities (IC50) of the target complex against rat glioma C6 cells.

Regarding [(η^6-p-cymene)Ru(p-BrPIP)Cl]Cl [RAP07], the half-maximal inhibitory concentration (IC50) turned out to be 8.33 ± 0.6 µM in assay [1], 18.1 ± 1.7 µM in assay [2] and 5.6 ± 0.2 µM in assay [3]. Moreover, in the assay on MDA-MB-231 cells, the “Cell cycle arrest of MDA-MB-231 cells” value was “Induces the S-Phase Arrest”.
